Each structure is given as a SMILES string. pIC50: −log10 of the molar value. Where a name gives a salt, the structure may show the parent alone.

The subject of this experiment is IL-2 production. Put plainly: Inhibition of IL-2 production in PHA-activated Jurkat cells (ELISA). The experiment is classed as cell-based. Conditions: PHA 2.5 μg/mL, IL-2 ELISA. The method, then: Jurkat cells were placed in a 96 well plate (0.5 million cells per well in 1% FBS medium) then a test compound of this invention was added at different concentrations. After 10 minutes, the cells were activated with PHA (final concentration 2.5 μg/mL) and incubated for 20 hours at 37° C. under CO2. The final volume was 200 μL. Following incubation, the cells were centrifuged and the supernatants collected and stored at −70° C. prior to assaying for IL-2 production. A commercial ELISA kit (IL-2 Eli-pair, Diaclone Research, Besancon, France) was used to detect production of IL-2, from which dose response curves were obtained. The IC50 value was calculated as the concentration at which 50% of maximum IL-2 production after stimulation was inhibited versus a non-stimulation control.

On to `Cc1cc(-c2ccno2)sc1-c1ccc(NC(=O)c2c(F)cccc2F)cc1` [Compound 1, 2,6-difluoro-N-(4-(5-(isoxazol-5-yl)-3-methylthiophen-2-yl)phenyl)benzamide], for which the pIC50 (Homo sapiens, Jurkat, 20 h) is 8.52.

Take `Cc1cnccc1C(=O)Nc1ccc(-c2cc(-c3cnco3)sc2C)cn1` [Compound 18, 3-methyl-N-(5-(2-methyl-5-(oxazol-5-yl)thiophen-3-yl)pyridin-2-yl)isonicotinamide]: the pIC50 (Homo sapiens, Jurkat, 20 h) is 7.77.

In turn, `Cc1sc(-c2cncn2C)cc1-c1cnc(NC(=O)c2c(F)cccc2F)cn1` [Compound 21, 2,6-difluoro-N-(5-(2-methyl-5-(1-methyl-1H-imidazol-5-yl)thiophen-3-yl)pyrazin-2-yl)benzamide] showed a negative logarithm of the IC50 (pIC50) (Homo sapiens, Jurkat, 20 h) of 7.57.

Take `Cc1sc(-c2cncn2C)cc1-c1ccc(NC(=O)c2c(F)cccc2F)nc1` [Compound 17, 2,6-difluoro-N-(5-(2-methyl-5-(1-methyl-1H-imidazol-5-yl)thiophen-3-yl)pyridin-2-yl)benzamide]: the negative logarithm of the IC50 (pIC50) (Homo sapiens, Jurkat, 20 h) was 7.60.

Take `COc1ccncc1-c1cc(-c2ccc(NC(=O)c3c(F)cccc3F)cc2)c(C)s1` [Compound 20, 2,6-difluoro-N-(4-(5-(4-methoxypyridin-3-yl)-2-methylthiophen-3-yl)phenyl)benzamide]: where the note is “Homo sapiens, Jurkat, 20 h”, the pIC50 is 7.72.

Compound `Cc1sc(-c2cnc[nH]2)cc1-c1ccc(NC(=O)c2c(F)cccc2F)nc1` [Compound 16, N-(5-(5-(1H-imidazol-5-yl)-2-methylthiophen-3-yl)pyridin-2-yl)-2,6-difluorobenzamide] had a negative logarithm of the IC50 (pIC50) (Homo sapiens, Jurkat, 20 h) of 7.30.

`Cc1sc(-c2cccnc2)cc1-c1ccc(NC(=O)c2c(F)cccc2F)cc1` [Compound 7, 2,6-difluoro-N-(4-(2-methyl-5-(pyridin-3-yl)thiophen-3-yl)phenyl)benzamide]: the pIC50 (Homo sapiens, Jurkat, 20 h) was 8.52.

`Cc1sc(-c2cnco2)cc1-c1ccc(NC(=O)c2c(F)cccc2F)nc1` [Compound 5, 2,6-difluoro-N-(5-(2-methyl-5-(oxazol-5-yl)thiophen-3-yl)pyridin-2-yl)benzamide] gave a pIC50 (Homo sapiens, Jurkat, 20 h) of 8.00.

Consider `Cc1sc(-c2cnco2)cc1-c1ccc(NC(=O)c2c(F)cccc2F)cn1` [Compound 10, 2,6-difluoro-N-(6-(2-methyl-5-(oxazol-5-yl)thiophen-3-yl)pyridin-3-yl)benzamide], for which the negative-log IC50 (pIC50) (Homo sapiens, Jurkat, 20 h) is 7.51.

`Cc1cc(-c2cncn2C)sc1-c1ccc(NC(=O)c2c(F)cccc2F)cc1` [Compound 3, 2,6-difluoro-N-(4-(3-methyl-5-(1-methyl-1H-imidazol-5-yl)thiophen-2-yl)phenyl)benzamide]: the negative-log IC50 (pIC50) (Homo sapiens, Jurkat, 20 h) is 8.10.

For `Cc1sc(-c2nccs2)cc1-c1ccc(NC(=O)c2c(F)cccc2F)cc1` [Compound 8, 2,6-difluoro-N-(4-(2-methyl-5-(thiazol-2-yl)thiophen-3-yl)phenyl)benzamide], the negative-log IC50 (pIC50) (Homo sapiens, Jurkat, 20 h) was 8.22.

On to `Cc1sc(-c2nccs2)cc1-c1ccc(NC(=O)c2c(F)cccc2F)nc1` [Compound 14, 2,6-difluoro-N-(5-(2-methyl-5-(thiazol-2-yl)thiophen-3-yl)pyridin-2-yl)benzamide], for which the pIC50 (Homo sapiens, Jurkat, 20 h) is 8.10.

On to `CCn1cncc1-c1cc(-c2ccc(NC(=O)c3c(F)cccc3F)cc2)c(C)s1` [Compound 25, N-(4-(5-(1-ethyl-1H-imidazol-5-yl)-2-methylthiophen-3-yl)phenyl)-2,6-difluorobenzamide], for which the negative logarithm of the IC50 (pIC50) (Homo sapiens, Jurkat, 20 h) was 7.57.

On to `Cc1sc(-c2nccs2)cc1-c1cnc(NC(=O)c2c(F)cccc2F)cn1` [Compound 15, 2,6-difluoro-N-(5-(2-methyl-5-(thiazol-2-yl)thiophen-3-yl)pyrazin-2-yl)benzamide], for which the negative-log IC50 (pIC50) (Homo sapiens, Jurkat, 20 h) was 8.00.

`Cc1sc(-c2nnco2)cc1-c1ccc(NC(=O)c2c(F)cccc2F)cc1` [Compound 9, 2,6-difluoro-N-(4-(2-methyl-5-(1,3,4-oxadiazol-2-yl)thiophen-3-yl)phenyl)benzamide]: the negative-log IC50 (pIC50) (Homo sapiens, Jurkat, 20 h) is 8.05.

`Cc1sc(-c2cnccc2Cl)cc1-c1ccc(NC(=O)c2c(F)cccc2F)cc1` [Compound 19, N-(4-(5-(4-chloropyridin-3-yl)-2-methylthiophen-3-yl)phenyl)-2,6-difluorobenzamide] had a negative-log IC50 (pIC50) (Homo sapiens, Jurkat, 20 h) of 8.52.

Turning to `Cc1sc(-c2cncn2C)cc1-c1ccc(NC(=O)c2c(F)cccc2F)cc1` [Compound 23, 2,6-difluoro-N-(4-(2-methyl-5-(1-methyl-1H-imidazol-5-yl)thiophen-3-yl)phenyl)benzamide], the negative logarithm of the IC50 (pIC50) (Homo sapiens, Jurkat, 20 h) is 8.22.

With `Cc1sc(-c2cnc[nH]2)cc1-c1cnc(NC(=O)c2c(F)cccc2F)cn1` [Compound 22, N-(5-(5-(1H-imidazol-5-yl)-2-methylthiophen-3-yl)pyrazin-2-yl)-2,6-difluorobenzamide], for the setting “Homo sapiens, Jurkat, 20 h”, the negative-log IC50 (pIC50) was 6.82.

On to `Cc1sc(-c2cnc[nH]2)cc1-c1ccc(NC(=O)c2c(F)cccc2F)cc1` [Compound 11, N-(4-(5-(1H-imidazol-5-yl)-2-methylthiophen-3-yl)phenyl)-2,6-difluorobenzamide], for which the negative-log IC50 (pIC50) (Homo sapiens, Jurkat, 20 h) was 7.80.

On to `Cc1cc(-c2nccs2)sc1-c1ccc(NC(=O)c2c(F)cccc2F)cc1` [Compound 2, 2,6-difluoro-N-(4-(3-methyl-5-(thiazol-2-yl)thiophen-2-yl)phenyl)benzamide], for which, under “Homo sapiens, Jurkat, 20 h”, the pIC50 is 8.15.

Under “20 hours, hydrochloride”, `Cc1sc(-c2cncn2C)cc1-c1ccc(NC(=O)c2c(F)cccc2F)cc1` [Compound 24, 2,6-difluoro-N-(4-(2-methyl-5-(1-methyl-1H-imidazol-5-yl)thiophen-3-yl)phenyl)benzamide hydrochloride] gave a pIC50 of 8.52.

Where the note is “Homo sapiens, Jurkat, 20 h”, `Cc1ccncc1-c1cc(-c2ccc(NC(=O)c3c(F)cccc3F)cc2)c(C)s1` [Compound 12, 2,6-difluoro-N-(4-(2-methyl-5-(4-methylpyridin-3-yl)thiophen-3-yl)phenyl)benzamide] had a pIC50 of 8.05.

As to `COc1ncc(Cl)cc1-c1cc(-c2ccc(NC(=O)c3c(F)cccc3F)cc2)c(C)s1` [Compound 13, N-(4-(5-(5-chloro-2-methoxypyridin-3-yl)-2-methylthiophen-3-yl)phenyl)-2,6-difluorobenzamide], the pIC50 (Homo sapiens, Jurkat, 20 h) was 7.14.

For the compound `Cc1cc(-c2cccnc2)sc1-c1ccc(NC(=O)c2c(F)cccc2F)cc1` [Compound 6, 2,6-difluoro-N-(4-(3-methyl-5-(pyridin-3-yl)thiophen-2-yl)phenyl)benzamide], the pIC50 (Homo sapiens, Jurkat, 20 h) is 8.70.

Where the note is “Homo sapiens, Jurkat, 20 h”, `Cc1sc(-c2cnco2)cc1-c1cnc(NC(=O)c2c(F)cccc2F)cn1` [Compound 4, 2,6-difluoro-N-(5-(2-methyl-5-(oxazol-5-yl)thiophen-3-yl)pyrazin-2-yl)benzamide] showed a pIC50 of 7.82.

The values are drawn from patent publication US20130236481A1, “HETEROCYCLE -ARYL COMPOUNDS FOR INFLAMMATION AND IMMUNE-RELATED USES” (SYNTA PHARMACEUTICALS CORP., priority 2007, published 2013).
